Assay results from PubChem BioAssay AID1794829.
Results filed as inconclusive are left out.

Biological target: Solute carrier family 2, facilitated glucose transporter member 2 (Homo sapiens) (UniProt P11168)
Test: SLC2A2-mediated glucose transport in cells – cell-based, flow cytometry, glucose FRET sensor, HEK293 JumpIN TRex, wild type, dose response (AID 1794829)
Settings: HEK293 JumpIN SLC2A2-OE

Sequence of Solute carrier family 2, facilitated glucose transporter member 2 (Homo sapiens) (P11168 whole entry, looked up): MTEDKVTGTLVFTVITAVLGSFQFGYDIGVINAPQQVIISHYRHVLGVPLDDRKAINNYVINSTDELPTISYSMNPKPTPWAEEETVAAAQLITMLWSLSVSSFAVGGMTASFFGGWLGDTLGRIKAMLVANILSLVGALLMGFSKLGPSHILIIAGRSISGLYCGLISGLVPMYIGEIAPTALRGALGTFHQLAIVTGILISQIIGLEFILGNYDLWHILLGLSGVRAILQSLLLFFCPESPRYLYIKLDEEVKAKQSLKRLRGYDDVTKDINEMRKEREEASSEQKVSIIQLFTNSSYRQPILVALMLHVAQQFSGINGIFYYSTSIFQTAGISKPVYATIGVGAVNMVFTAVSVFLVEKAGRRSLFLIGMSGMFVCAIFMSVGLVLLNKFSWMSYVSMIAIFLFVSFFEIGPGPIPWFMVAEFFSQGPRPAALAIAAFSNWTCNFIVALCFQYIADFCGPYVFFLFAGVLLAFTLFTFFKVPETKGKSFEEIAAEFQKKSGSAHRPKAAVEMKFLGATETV

SMILES: OC[C@H]1OC(O)[C@H](O)[C@@H](O)[C@@H]1O (stereo partly specified)
- EC50 (substrate-induced FRET increase): 710 µM
